The assay has as its target GST-tagged truncated human mutant G2019S LRRK2 (Homo sapiens (Human), UniProt Q5S007, G2019S). The assay can be described thus: LRRK2 G2019S Km ATP LanthaScreen assay. The assay is classed as biochemical. The note with it: G2019S LRRK2, 134 μM ATP (Km ATP), LRRKtide substrate. On the procedure: Unless otherwise noted, all reactions are magnetically allowed to stir, diethyl ether used in the experiments described below is Fisher ACS certified material stabilized with BHT, and “concentrated” and/or “solvent removed under reduced pressure” means evaporating the solvent from a solution or mixture using a rotary evaporator or vacuum pump. Unless otherwise noted, flash chromatography is carried out on a Teledyne Isco (Lincoln, NE), Analogix (Burlington, WI), or Biotage (Stockholm, SWE) automated chromatography system using a commercially available cartridge as the column. Columns may be purchased from Teledyne Isco, Analogix, Biotage, Varian (Palo Alto, CA), or Supelco (Bellefonte, PA) and are usually filled with silica gel as the stationary phase. Reverse phase prep-HPLC conditions, where used, can be found at the end of each experimental section. Aqueous solutions were concentrated on a Genevac (Ipswich, ENG) or by freeze-drying/lyophilization. Unless otherwise noted, all LRRK2 pIC50 data presented in tables refers to the LRRK2 G2019S Km ATP LanthaScreen™ assay (Life Technologies Corp., Carlsbad, CA) that is described in the Biological Assay section.
The LRRK2 kinase activity reported herein as IC50 values was determined with LanthaScreen™ technology from Life Technologies Corporation (Carlsbad, CA) using GST-tagged truncated human mutant G2019S LRRK2 in the presence of the fluorescein-labeled peptide substrate LRRKtide, also from Life Technologies. The data presented for the […] depending on the specific conditions and reagents used. Assays were performed in the presence of 134 μM ATP (Km ATP). Upon completion, the assay was stopped and phosphorylated substrate detected with a terbium (Tb)-labeled anti-pERM antibody (cat. no. PV4898). The compound dose response was prepared by diluting a 10 mM stock of compound to a maximum concentration of 9.99 μM in 100% dimethylsulfoxide followed by custom fold serial dilution in dimethylsulfoxide nine times. Twenty nanoliters of each dilution was spotted via a Labcyte Echo onto a 384-well black-sided plate (Corning 3575) followed by 15 μl of a 1.25 nM enzyme solution in 1× assay buffer (50 mM Tris pH 8.5, 10 mM MgCl2, 0.01% Brij-35, 1 mM EGTA, 2 mM dithiothreitol, 0.05 mM sodium orthovanadate). Following a 15-minute incubation at room temperature, the kinase reaction was started with the addition of 5 μl of 400 nM fluorescein-labeled LRRKtide peptide substrate and 134 μM ATP solution in 1× assay buffer. The reaction was allowed to progress at ambient temperature for 90 minutes. The reaction was then stopped by the addition of 20 μl of TR-FRET Dilution Buffer (Life Technologies, Carlsbad, CA) containing 2 nM Tb-labeled anti-phospho LRRKtide antibody and 10 mM EDTA (Life Technologies, Carlsbad, CA). After an incubation of 1 h at room temperature, the plate was read on an EnVision multimode plate reader (Perkin Elmer, Waltham, MA) with an excitation wavelength of 337 nm (Laser) and a reading emission at both 520 and 495 nm. Compound IC50s were interpolated from nonlinear regression best fits of the log of the final compound concentration, plotted as a function of the 520/495-nm emission ratio using Activity base. Abase uses a 4 parameter (4P) logistic fit based on the Levenberg-Marquardt algorithm.
(TR-FRET usually uses a lanthanide donor and a delayed reading to cut background.)
GST-tagged truncated human mutant G2019S LRRK2, sequence (Q5S007 970-2527 G2019S): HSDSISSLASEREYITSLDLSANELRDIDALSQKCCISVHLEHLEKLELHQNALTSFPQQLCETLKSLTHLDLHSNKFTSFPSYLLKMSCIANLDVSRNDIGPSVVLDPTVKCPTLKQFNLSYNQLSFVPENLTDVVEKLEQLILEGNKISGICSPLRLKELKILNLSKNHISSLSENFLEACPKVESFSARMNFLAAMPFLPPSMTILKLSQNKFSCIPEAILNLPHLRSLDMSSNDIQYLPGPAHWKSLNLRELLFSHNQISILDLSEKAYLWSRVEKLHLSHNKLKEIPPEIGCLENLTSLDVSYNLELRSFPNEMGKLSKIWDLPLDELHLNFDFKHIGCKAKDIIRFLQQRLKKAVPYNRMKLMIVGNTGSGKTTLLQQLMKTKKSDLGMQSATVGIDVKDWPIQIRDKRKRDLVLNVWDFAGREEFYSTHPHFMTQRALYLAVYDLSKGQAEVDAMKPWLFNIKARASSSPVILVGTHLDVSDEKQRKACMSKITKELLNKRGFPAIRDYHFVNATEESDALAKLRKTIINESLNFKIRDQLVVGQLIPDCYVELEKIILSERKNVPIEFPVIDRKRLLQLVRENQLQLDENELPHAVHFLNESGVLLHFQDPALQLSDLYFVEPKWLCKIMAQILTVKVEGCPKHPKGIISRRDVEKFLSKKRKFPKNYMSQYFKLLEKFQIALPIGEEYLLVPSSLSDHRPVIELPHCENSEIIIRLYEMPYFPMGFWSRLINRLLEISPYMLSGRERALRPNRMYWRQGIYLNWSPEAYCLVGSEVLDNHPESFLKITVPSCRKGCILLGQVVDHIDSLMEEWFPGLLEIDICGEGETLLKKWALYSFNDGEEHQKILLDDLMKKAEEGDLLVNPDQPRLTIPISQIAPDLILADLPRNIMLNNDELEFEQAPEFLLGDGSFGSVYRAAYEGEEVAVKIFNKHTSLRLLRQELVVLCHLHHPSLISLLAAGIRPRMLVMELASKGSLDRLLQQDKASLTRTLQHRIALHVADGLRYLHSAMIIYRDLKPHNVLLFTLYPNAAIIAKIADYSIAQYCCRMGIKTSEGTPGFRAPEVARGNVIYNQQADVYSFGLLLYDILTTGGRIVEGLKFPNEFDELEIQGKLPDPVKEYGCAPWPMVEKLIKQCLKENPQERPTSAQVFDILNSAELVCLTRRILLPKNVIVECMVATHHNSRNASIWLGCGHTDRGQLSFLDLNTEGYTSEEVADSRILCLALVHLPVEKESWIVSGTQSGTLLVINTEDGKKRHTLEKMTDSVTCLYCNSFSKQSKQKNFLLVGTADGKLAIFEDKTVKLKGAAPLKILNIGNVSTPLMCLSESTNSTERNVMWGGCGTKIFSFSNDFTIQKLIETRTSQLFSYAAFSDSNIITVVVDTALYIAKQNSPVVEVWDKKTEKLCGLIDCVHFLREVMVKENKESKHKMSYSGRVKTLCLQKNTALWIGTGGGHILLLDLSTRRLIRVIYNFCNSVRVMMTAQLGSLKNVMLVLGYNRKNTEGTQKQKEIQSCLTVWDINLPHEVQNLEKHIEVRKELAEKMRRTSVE
As for `Cn1nc(C(F)(F)F)c2c1OC[C@@H]1COC[C@H]1Nc1nc(ncc1Cl)N2` [Ex-1.13, (10aS,13aS)-8-chloro-1-methyl-3-(trifluoromethyl)-1,4,10a,11,13a,14-hexahydro-10H,13H-5,9-(azeno)furo[3,4-k]pyrazolo[3,4-b][1]oxa[4,6,10]triazacyclotridecine], the “LRRK2 pIC50” value is given as 7.99.

`CC(C)n1nc(C2C[C@@H]2C#N)c2c1Nc1ncc(C(F)(F)F)c(n1)N[C@@H]1COC[C@H]1CO2` (single isomer, unassigned) [Ex-2.44, (1S,2S)- or (1R,2R)-2-((10aS,13aS)-3-isopropyl-8-(trifluoromethyl)-3,4,10a,11,13a,14-hexahydro-10H,13H-5,9-(azeno)furo[3,4-k]pyrazolo[4,3-b][1]oxa[4,6,10]triazacyclotridecin-1-yl)cyclopropane-1-carbonitrile]: the “LRRK2 pIC50” value is given as 8.80.

As for `Cn1cc(C2CC2c2nn(C3CCC3)c3c2OC[C@@H]2COC[C@H]2Nc2nc(ncc2C(F)(F)F)N3)cn1` (stereo partly drawn) [Ex-2.69, (10aS,13aS)-3-cyclobutyl-1-((1S,2S)- or (10aS,13aS)-3-cyclobutyl-1-((1R,2R)-2-(1-methyl-1H-pyrazol-4-yl)cyclopropyl)-8-(trifluoromethyl)-3,4,10a,11,13a,14-hexahydro-10H,13H-5,9-(azeno)furo[3,4-k]pyrazolo[4,3-b][1]oxa[4,6,10]triazacyclotridecine], the “LRRK2 pIC50” value is reported as greater than 10.09.

Take `N#CC1CC1c1nn(C2CCC2)c2c1OC[C@@H]1COC[C@H]1Nc1nc(ncc1C(F)(F)F)N2` (single isomer, unassigned) [Ex-2.51, (1R,2R)- or (1S,2S)-2-((10aS,13aS)-3-cyclobutyl-8-(trifluoromethyl)-3,4,10a,11,13a, 14-hexahydro-10H,13H-5,9-(azeno)furo[3,4-k]pyrazolo[4,3-b][1]oxa[4,6,10]triazacyclotridecin-1-yl)cyclopropane-1-carbonitrile]: the “LRRK2 pIC50” value turned out to be 9.05.

As for `Cc1nn(C2CC2)c2c1OC[C@@H]1CC[C@H]1Nc1nc(ncc1Cl)N2` [Ex-2.60, (10aR,12aR)-8-chloro-3-cyclopropyl-1-methyl-3,4,10,10a,11,12,12a,13-octahydro-5,9-(azeno)cyclobuta[k]pyrazolo[4,3-b][1]oxa[4,6,10]triazacyclotridecine], the “LRRK2 pIC50” value was 9.41.

Take `Cn1nc(C2CC2)c2c1OCC1COCC1Nc1nc(ncc1C(F)(F)F)N2` [Ex-1.6, (10aS,13aS)- or (10aR,13aR)-3-cyclopropyl-1-methyl-8-(trifluoromethyl)-1,4,10a,11,13a,14-hexahydro-10H,13H-5,9-(azeno)furo[3,4-k]pyrazolo[3,4-b][1]oxa[4,6,10]triazacyclotridecine]: the “LRRK2 pIC50” value is recorded as 6.92.

Turning to “(R)- or (S)-1-cyclopropyl-3,7-dimethyl-10- (trifluoromethyl)-1,5,6,7,8,14-hexahydro- 9,13-(azeno)pyrazolo[4,3- b][1]oxa[4,6,10]triazacyclotridecine [Ex-2.21]”, the “LRRK2 pIC50” value is recorded as 9.00.

On to `CCOC(=O)C(C)(C)n1nc(C(C)C)c2c1OCC[C@@H](C)Nc1nc(ncc1C(F)(F)F)N2` [Ex-1.12, ethyl (R)-2-(3-isopropyl-11-methyl-8-(trifluoromethyl)-10,11,12,13-tetrahydro-5,9-(azeno)pyrazolo[3,4-b][1]oxa[4,6,10]triazacyclotridecin-1(4H)-yl)-2-methylpropanoate], for which the “LRRK2 pIC50” value is less than 5.00.

Consider `FC(F)(F)c1cnc2nc1N[C@@H]1COC[C@H]1COc1cc(Cl)ncc1N2` [Ex-15.8, (3aS,16aS)-13-chloro-6-(trifluoromethyl)-3a,4,16,16a-tetrahydro-1H,3H,10H-5,9-(azeno)furo[3,4-k]pyrido[4,3-b][1]oxa[4,6,10]triazacyclotridecine], for which the “LRRK2 pIC50” value was found to be 9.04.

As for `CC1CCOc2c(C3CC3)nn(C)c2Nc2ncc(C(F)(F)F)c(n2)N1` (single isomer, unassigned) [Ex-2.19, (R)- or (S)-3-cyclopropyl-1,7-dimethyl-10-(trifluoromethyl)-1,5,6,7,8,14-hexahydro-9,13-(azeno)pyrazolo[4,3-b][1]oxa[4,6,10]triazacyclotridecine], the “LRRK2 pIC50” value was found to be 8.78.

With `Cc1nn(C2CCC2)c2c1OC[C@@H]1COC[C@H]1Nc1cc(ncc1F)N2` [Ex-13.8, (10aR,13aR)-3-cyclobutyl-8-fluoro-1-methyl-3,4,10a,11,13a,14-hexahydro-10H,13H-5,9-(metheno)furo[3,4-k]pyrazolo[4,3-b][1]oxa[4,6,10]triazacyclotridecine], the “LRRK2 pIC50” value is less than 5.00.

Take `Cc1nn(C2CCC2)c2c1OC[C@H]1CN(C[C@@H]1C)c1nc(ncc1C(F)(F)F)N2` (single isomer, unassigned) [Ex-20.1, (6S,7S)- or (6R,7R)-1-Cyclobutyl-3,7-dimethyl-11-(trifluoromethyl)-1,5,6,7,8,15-hexahydro-10,14-(azeno)-6,9-methanopyrazolo[4,3-b][1]oxa[4,6,10]triazacyclotetradecine]: the “LRRK2 pIC50” value worked out at 5.84.

As for `Cc1nn(C2CC2)c2c1OC[C@@H]1CC[C@H]1Nc1nc(ncc1C(F)(F)F)N2` [Ex-2.68, (10aR,12aR)-3-cyclopropyl-1-methyl-8-(trifluoromethyl)-3,4,10,10a,11,12,12a,13-octahydro-5,9-(azeno)cyclobuta[k]pyrazolo[4,3-b][1]oxa[4,6,10]triazacyclotridecine], the “LRRK2 pIC50” value is greater than 10.09.

`Cc1nn(C2CCC2)c2c1OC[C@@H]1CN(C[C@H]1C)c1nc(ncc1C(F)(F)F)N2` (single isomer, unassigned) [Ex-20.2, (6S,7S)- or (6R,7R)-1-Cyclobutyl-3,7-dimethyl-11-(trifluoromethyl)-1,5,6,7,8,15-hexahydro-10,14-(azeno)-6,9-methanopyrazolo[4,3-b][1]oxa[4,6,10]triazacyclotetradecine]: the “LRRK2 pIC50” value is 9.39.

As for `Cc1nn(C2CCC2)c2c1OC[C@H]1CC[C@H]1Nc1nc(ncc1C(F)(F)F)N2` (single isomer, unassigned) [Ex-2.23, (10aR,12aS)- or (10aS,12aR)-3-cyclobutyl-1-methyl-8-(trifluoromethyl)-3,4,10,10a,11,12,12a,13-octahydro-5,9-(azeno)cyclobuta[k]pyrazolo[4,3-b][1]oxa[4,6,10]triazacyclotridecine], the “LRRK2 pIC50” value was greater than 10.09.

Consider `Cn1nc(C2CC2)c2c1OCC1CCC1Nc1nc(ncc1C(F)(F)F)N2` [Ex-1.11, (10aR,12aR)- or (10aS,12aS)-3-cyclopropyl-1-methyl-8-(trifluoromethyl)-1,4,10,10a,11,12,- 12a,13-octahydro-5,9-(azeno)cyclobuta[k]pyrazolo[3,4-b][1]oxa[4,6,10]triazacyclotridecine], for which the “LRRK2 pIC50” value was greater than 10.09.

As to `FC(F)(F)c1cnc2nc1NC1CCC1COc1c(C3CCOC3)nn(C3CCC3)c1N2` [Ex-2.63, (10aR,12aR)-3-cyclobutyl-1-((R)-(10aR,12aR)-3-cyclobutyl-1-((S)-(10aS,12aS)-3-cyclobutyl-1-((R)-(10aS,12aS)-3-cyclobutyl-1-((S)-tetrahydrofuran-3-yl)-8-(trifluoromethyl)-3,4,10,10a,11,12,12a,13-octahydro-5,9-(azeno)cyclobuta[k]pyrazolo[4,3-b][1]oxa[4,6,10]triazacyclotridecine], the “LRRK2 pIC50” value is greater than 10.09.

On to `COc1cccc2c1Nc1ncc(C(F)(F)F)c(n1)N[C@H]1COC[C@@H]1CO2` [Ex-15.1], for which the “LRRK2 pIC50” value is greater than 10.09.

Regarding `Cc1nn(C(C)C)c2c1OC[C@@H]1COC[C@H]1Nc1nc(ncc1Cl)N2` [Ex-2.54, (10aS,13aS)-8-chloro-3-isopropyl-1-methyl-3,4,10a, 11,13a,14--hexahydro-10H,13H-5,9-(azeno)furo[3,4-k]pyrazolo[4,3-b][1]oxa[4,6,10]triazacyclotridecine], the “LRRK2 pIC50” value was 8.57.

With `Cc1nn(C2CCC2)c2c1OC1COC[C@@H]1CNc1nc(ncc1Cl)N2` (stereo partly drawn) [Ex-2.84, (11aR,14aR)- or (11aS,14aS) 8-chloro-3-cyclobutyl-1-methyl-3,4,10,11,11a,12,14,14a-octahydro-5,9-(azeno)furo[3,4-1]pyrazolo[4,3-b][1]oxa[4,6,10]triazacyclotridecine], the “LRRK2 pIC50” value is reported as 8.77.

These data come from patent US20250313575A1, “MACROCYCLES AS LRRK2 INHIBITORS, PHARMACEUTICAL COMPOSITIONS, AND USES THEREOF” (Merck Sharp & Dohme LLC, priority 2022, published 2025).
